{"source": "patent US12110288B2", "about": "“MASP-2 inhibitors and methods of use” (Omeros Corporation, priority 2019, dated 2024)", "note": "Counter-ions that a name gives are not always drawn.", "data": [{"biological_target": "T1, MASP-2 (CCP1-CCP2-SP) (Homo sapiens, UniProt O00187)", "T1 construct": "15 μL of Enzyme MASP-2 (CCP1-CCP2-SP) in Assay Buffer", "T1 sequence (O00187 445-686 limits assumed)": "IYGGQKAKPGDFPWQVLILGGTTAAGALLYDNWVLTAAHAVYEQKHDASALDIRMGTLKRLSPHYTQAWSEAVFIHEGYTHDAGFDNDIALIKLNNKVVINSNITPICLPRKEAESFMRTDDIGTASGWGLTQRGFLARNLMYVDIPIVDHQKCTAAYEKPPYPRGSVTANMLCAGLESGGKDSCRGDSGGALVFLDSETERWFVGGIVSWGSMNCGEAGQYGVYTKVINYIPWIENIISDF", "T1 sequence (O00187 298-444 partner limits assumed)": "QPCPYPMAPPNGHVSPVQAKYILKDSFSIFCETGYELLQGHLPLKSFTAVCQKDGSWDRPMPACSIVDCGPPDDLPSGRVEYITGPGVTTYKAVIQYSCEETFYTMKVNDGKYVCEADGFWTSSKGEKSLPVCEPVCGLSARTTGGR", "test": "Enzymatic Assay for MASP-2", "assay_type": "biochemical", "conditions": "fluorogenic substrate based on C2 cleavage site, room temperature, 20 mM HEPES pH 7.4", "description": "Enzymatic Assay for MASP-2\nThe MASP-2 assay utilizes a fluorogenic substrate, based on the cleavage site for its natural substrate C2. The assay is run at room temperature in an assay buffer containing 20 mM HEPES, pH 7.4, 140 mM NaCl and 0.1% Tween 20. Assay parameters are adjusted such that the assay is linear with respect to time, enzyme, and substrate concentrations. Under these optimized assays conditions, IC50 values are equivalent to Ki values, except in a few cases of “tight binding” inhibitors. Cases of “tight binding” or possible “slow binding” inhibitors are handled by the methods described in Copeland R. A. (2013) Evaluation of Enzyme Inhibitors in Drug Discovery. 2nd Ed., John Wiley and Sons, Inc., Chapters 5-7.\nThe MASP-2 assay protocol is carried out as follows. Test compounds are serially diluted in DMSO and then 100 nL of each dilution is transferred to the assay plate(s). 10 μL of Assay Buffer is added, followed by 15 μL of Enzyme MASP-2 (CCP1-CCP2-SP) in Assay Buffer. 15 μL of Substrate in Assay Buffer is then added and mixed to start the reactions. After 20 min at room temperature, 15 μL of a stop solution (0.1 M acetic acid) is added, mixed and the plates are read on a SpectraMax i3x Microplate Reader and exported as Excel files. Each assay plate included a “no inhibitor” (DMSO Only) control, a “no enzyme” control and a reference inhibitor control. % Activity values=100*(average test comp. fluorescence−average “no enzyme” fluorescence)/(average “DMSO only” fluorescence−average “no enzyme” fluorescence). IC50 and Ki values are very reproducible, falling well within ±2-fold.", "units": {"Ki": "nM"}, "values": [{"molecule": "Cn1cc(NS(=O)(=O)Cc2ccccc2)c(=O)n(CC(=O)NCc2ccc(C(=N)N)cc2)c1=O", "note": "[Compound 37, N-(4-Carbamimidoylbenzyl)-2-(3-Methyl-2,6-Dioxo-5-((Phenylmethyl)Sulfonamido)-3,6-Dihydropyrimidin-1(2H)-yl)Acetamide, Trifluoroacetate]", "Ki": "500 to 2500"}, {"molecule": "CNc1nc(Cl)c(-c2ccccc2)n(CC(=O)NCc2ccc(N)nc2C)c1=O", "note": "[Compound 38]", "Ki": "500 to 2500"}, {"molecule": "Cc1nc(N)ccc1CNC(=O)Cn1c(-c2ccccc2)c(Cl)nc(N(C)C)c1=O", "note": "[Compound 39, N-((6-Amino-2-methylpyridin-3-yl)methyl)-2-(5-chloro-3-(dimethylamino)-2-oxo-6-phenylpyrazin-1(2H)-yl)acetamide]", "Ki": "2500 to 10000"}, {"molecule": "Cc1nc(N)ccc1CNC(=O)Cn1c(-c2ccccc2)c(Cl)nc(N2CCCC2)c1=O", "note": "[Compound 40, N-((6-Amino-2-methylpyridin-3-yl)methyl)-2-(5-chloro-2-oxo-6-phenyl-3-(pyrrolidin-1-yl)pyrazin-1(2H)-yl)acetamide]", "Ki": "< 500"}, {"molecule": "Cc1nc(N)ccc1CNC(=O)Cn1c(-c2ccccc2)c(Cl)nc(NCCc2ccccc2)c1=O", "note": "[Compound 41, N-((6-Amino-2-Methylpyridin-3-yl)Methyl)-2-(5-Chloro-2-Oxo-3-(Phenethylamino)-6-Phenylpyrazin-1(2H)-yl)Acetamide]", "Ki": "500 to 2500"}, {"molecule": "Cc1nc(N)ccc1CNC(=O)Cn1c(-c2ccccc2)c(Cl)nc(NC2COC2c2ccccc2)c1=O", "note": "(stereo not drawn) [Compound 42]", "Ki": "500 to 2500"}, {"molecule": "Cc1nc(N)ccc1CNC(=O)Cn1c(-c2ccccc2)cnc(N2CCCC2)c1=O", "note": "[Compound 43, N-((6-Amino-2-Methylpyridin-3-yl)Methyl)-2-(2-Oxo-6-Phenyl-3-(Pyrrolidin-1-yl)Pyrazin-1(2H)-yl)Acetamide]", "Ki": "< 500"}, {"molecule": "Cc1nc(N)ccc1CNC(=O)Cn1c(-c2ccccc2)cnc(N2CCOCC2)c1=O", "note": "[Compound 44, N-((6-Amino-2-methylpyridin-3-yl)methyl)-2-(3-morpholino-2-oxo-6-phenylpyrazin-1(2H)-yl)acetamide]", "Ki": "< 500"}, {"molecule": "CNc1ncc(-c2ccccc2)n(CC(=O)NCc2ccc(N)nc2C)c1=O", "note": "[Compound 45, N-((6-Amino-2-methylpyridin-3-yl)methyl)-2-(3-(methylamino)-2-oxo-6-phenylpyrazin-1(2H)-yl)acetamide]", "Ki": "< 500"}, {"molecule": "Cn1c(CNC(=O)Cn2c(-c3ccccc3)cnc(NCCc3ccccc3)c2=O)cc2cnccc21", "note": "[Compound 46, N-((1-Methyl-1H-Pyrrolo[3,2-c]Pyridin-2-yl)Methyl)-2-(2-Oxo-3-(Phenethylamino)-6-Phenylpyrazin-1(2H)-yl)Acetamide Trifluoroacetate]", "Ki": "< 500"}, {"molecule": "O=C(Cn1c(-c2ccccc2)cnc(NCC2(c3ccccc3)COC2)c1=O)NCc1cc2cnccc2[nH]1", "note": "[Compound 47, N-((1H-pyrrolo[3,2-c]pyridin-2-yl)methyl)-2-(2-oxo-6-phenyl-3-(((3-phenyloxetan-3-yl)methyl)amino)pyrazin-1(2H)-yl)acetamide trifluoroacetate]", "Ki": "< 500"}, {"molecule": "O=C(Cn1c(-c2ccccc2)cnc(NCCCc2ccccc2)c1=O)NCc1cc2cnccc2[nH]1", "note": "[Compound 48, N-((1H-Pyrrolo[3,2-c]pyridin-2-yl)methyl)-2-(2-oxo-6-phenyl-3-((3-phenylpropyl)amino)pyrazin-1(2H)-yl)acetamide trifluoroacetate]", "Ki": "< 500"}, {"molecule": "O=C(Cn1c(-c2ccccc2)cnc(NC(CO)Cc2ccccc2)c1=O)NCc1cc2cnccc2[nH]1", "note": "(stereo not drawn) [Compound 49, N-((1H-Pyrrolo[3,2-c]pyridin-2-yl)methyl)-2-(3-((1-hydroxy-3-phenylpropan-2-yl)amino)-2-oxo-6-phenylpyrazin-1(2H)-yl)acetamide trifluoroacetate]", "Ki": "< 500"}, {"molecule": "O=C(Cn1c(-c2ccccc2)cnc(NCC2(c3ccccc3)CCOC2)c1=O)NCc1cc2cnccc2[nH]1", "note": "(stereo not drawn) [Compound 50, N-((1H-Pyrrolo[3,2-c]pyridin-2-yl)methyl)-2-(2-oxo-6-phenyl-3-(((3-phenyltetrahydrofuran-3-yl)methyl)amino)pyrazin-1(2H)-yl)acetamide trifluoroacetate]", "Ki": "< 500"}, {"molecule": "O=C(Cn1c(-c2ccccc2)cnc(NC2(c3ccccc3)COC2)c1=O)NCc1cc2cnccc2[nH]1", "note": "[Compound 51, N-((1H-Pyrrolo[3,2-c]pyridin-2-yl)methyl)-2-(2-oxo-6-phenyl-3-((3-phenyloxetan-3-yl)amino)pyrazin-1(2H)-yl)acetamide trifluoroacetate]", "Ki": "< 500"}, {"molecule": "O=C(Cn1c(-c2ccccc2)cnc(NCC2(c3ccccc3)CC2)c1=O)NCc1cc2cnccc2[nH]1", "note": "[Compound 52, N-((1H-Pyrrolo[3,2-c]pyridin-2-yl)methyl)-2-(2-oxo-6-phenyl-3-(((1-phenylcyclopropyl)methyl)amino)pyrazin-1(2H)-yl)acetamide trifluoroacetate]", "Ki": "< 500"}, {"molecule": "CC(C)(C)OC(=O)N1CCC2(CC1)CCN(c1ncc(-c3ccccc3)n(CC(=O)NCc3cc4cnccc4[nH]3)c1=O)C2", "note": "[Compound 53, Tert-Butyl 2-(4-(2-(((1H-Pyrrolo[3,2-c]Pyridin-2-yl)Methyl)Amino)-2-Oxoethyl)-3-Oxo-5-Phenyl-3,4-Dihydropyrazin-2-yl)-2,8-Diazaspiro[4.5]Decane-8-Carboxylate]", "Ki": "< 500"}, {"molecule": "O=C(Cn1c(-c2ccccc2)cnc(N2CCC3(CCNCC3)C2)c1=O)NCc1cc2cnccc2[nH]1", "note": "[Compound 54, N-((1H-Pyrrolo[3,2-c]Pyridin-2-yl)Methyl)-2-(2-Oxo-6-Phenyl-3-(2,8-Diazaspiro[4.5]Decan-2-yl)Pyrazin-1(2H)-yl)Acetamide Di-Trifluoroacetate]", "Ki": "500 to 2500"}, {"molecule": "O=C(Cn1c(-c2ccccc2)cnc(NCC2(c3ccc(F)cc3)COC2)c1=O)NCc1cc2cnccc2[nH]1", "note": "[Compound 55, N-((1H-Pyrrolo[3,2-c]pyridin-2-yl)methyl)-2-(3-(((3-(4-fluorophenyl)oxetan-3-yl)methyl)amino)-2-oxo-6-phenylpyrazin-1(2H)-yl)acetamide trifluoroacetate]", "Ki": "< 500"}, {"molecule": "O=C(Cn1c(-c2ccccc2)cnc(NCC2(c3ccccc3)CCC2)c1=O)NCc1cc2cnccc2[nH]1", "note": "[Compound 56, N-((1H-Pyrrolo[3,2-c]pyridin-2-yl)methyl)-2-(2-oxo-6-phenyl-3-(((1-phenylcyclobutyl)methyl)amino)pyrazin-1(2H)-yl)acetamide trifluoroacetate]", "Ki": "< 500"}, {"molecule": "O=C(Cn1c(-c2ccccc2)cnc(NCC2(c3ccc(Cl)cc3)CC2)c1=O)NCc1cc2cnccc2[nH]1", "note": "[Compound 57, N-((1H-Pyrrolo[3,2-c]pyridin-2-yl)methyl)-2-(3-(((1-(4-chlorophenyl)cyclopropyl)methyl)amino)-2-oxo-6-phenylpyrazin-1(2H)-yl)acetamide trifluoroacetate]", "Ki": "< 500"}, {"molecule": "O=C(Cn1c(-c2ccccc2)cnc(NCc2ccccc2)c1=O)NCc1cc2cnccc2[nH]1", "note": "[Compound 58, N-((1H-Pyrrolo[3,2-c]Pyridin-2-yl)Methyl)-2-(3-(Benzylamino)-2-Oxo-6-Phenylpyrazin-1(2H)-yl)Acetamide Trifluoroacetate]", "Ki": "< 500"}, {"molecule": "O=C(Cn1c(-c2ccccc2)cnc(NCC2(c3ccc(F)cc3)CC2)c1=O)NCc1cc2cnccc2[nH]1", "note": "[Compound 59, N-((1H-Pyrrolo[3,2-c]pyridin-2-yl)methyl)-2-(3-(((1-(4-fluorophenyl)cyclopropyl)methyl)amino)-2-oxo-6-phenylpyrazin-1(2H)-yl)acetamide trifluoroacetate]", "Ki": "< 500"}, {"molecule": "O=C(Cn1c(-c2ccccc2)cnc(NCC2(c3ccc(C(F)(F)F)cc3)CC2)c1=O)NCc1cc2cnccc2[nH]1", "note": "[Compound 60, N-((1H-Pyrrolo[3,2-c]pyridin-2-yl)methyl)-2-(2-oxo-6-phenyl-3-(((1-(4-(trifluoromethyl)phenyl)cyclopropyl)methyl)amino)pyrazin-1(2H)-yl)acetamide trifluoroacetate]", "Ki": "< 500"}, {"molecule": "COc1ccc(C2(CNc3ncc(-c4ccccc4)n(CC(=O)NCc4cc5cnccc5[nH]4)c3=O)CC2)cc1", "note": "[Compound 61, N-((1H-Pyrrolo[3,2-c]pyridin-2-yl)methyl)-2-(3-(((1-(4-methoxyphenyl)cyclopropyl)methyl)amino)-2-oxo-6-phenylpyrazin-1(2H)-yl)acetamide trifluoroacetate]", "Ki": "< 500"}, {"molecule": "O=C(Cn1c(-c2ccccc2)cnc(NCC2(c3ccccc3F)COC2)c1=O)NCc1cc2cnccc2[nH]1", "note": "[Compound 62, N-((1H-Pyrrolo[3,2-c]pyridin-2-yl)methyl)-2-(3-(((3-(2-fluorophenyl)oxetan-3-yl)methyl)amino)-2-oxo-6-phenylpyrazin-1(2H)-yl)acetamide trifluoroacetate]", "Ki": "< 500"}, {"molecule": "Cc1ccc(C2(CNc3ncc(-c4ccccc4)n(CC(=O)NCc4cc5cnccc5[nH]4)c3=O)CC2)cc1", "note": "[Compound 63, N-((1H-Pyrrolo[3,2-c]pyridin-2-yl)methyl)-2-(2-oxo-6-phenyl-3-(((1-(p-tolyl)cyclopropyl)methyl)amino)pyrazin-1(2H)-yl)acetamide trifluoroacetate]", "Ki": "< 500"}]}]}
